{"source": "paper PMC7071076", "about": "“Antibacterial Activity and Pharmacokinetic Profile of a Promising Antibacterial Agent: 22-(2-Amino-phenylsulfanyl)-22-Deoxypleuromutilin” (Molecules, 2020)", "key": {"[1]": {"assay": "Pharmacokinetic study in mice", "assay_type": "in vivo", "conditions": "for plasma concentration, individual mice: mice 1-8 in order", "description": "Pharmacokinetic parameters of amphenmulin were measured according to previous reports with some modifications. Each group consisted of eight female SPF-ICR mice. Amphenmulin (1 mg/mL) was administered intravenously, intraperitoneally, and orally at a dose of 10 mg/kg, respectively. Formulation of amphenmulin was a filtered solution in 5% DMSO, 5% Tween-80, and 90% normal saline. Serial samples (each 0.2 mL) were collected from the ocular venous plexus and placed in a plastic centrifuge tube. The blood samples were placed at room temperature for 20 min and transferred to a 4 °C refrigerator for 12 h to promote blood coagulation. Then samples were centrifuged at 2000 r/min for 10 min to get serum. Serum samples were frozen at −20°C. 100 µL of samples was accurately absorbed and mixed with 100 µL of acetonitrile in a 1.5 mL centrifuge tube. The sample was mixed vigorously and centrifuged at 12,000 rpm for 10 min. The supernatant was transferred, filtered through a 0.22 μm cellulose membrane filter and used for LC-MS/MS analysis. Equipment and analysis conditions were shown in supplemental data. The pharmacokinetic parameters of amphenmulin were determined from the mean plasma concentration with noncompartmental analysis in WinNonlin 5.2 software (Pharsight, Mountain View, CA, USA). Data were shown as mean ± standard deviation (SD)."}, "[2]": {"tested_on": "MRSA", "assay": "MIC against MRSA (summary over strains)", "assay_type": "cell-based", "conditions": "Staphylococcus aureus, range over strains, read-out: minimal inhibitory concentration", "description": "The MIC of amphenmulin against MRSA, Escherichia coli, Salmonella typhimurium, Enterococcus faecalis, and Enterococcus faecium were determined using tiamulin as controls. MIC values were measured by the method of previous work. Staphylococcus aureus ATCC 29213 was used as the quality control bacteria, and the quality control range was referred to the Clinical and Laboratory Standards Institute (CLSI). The bacteria solution was diluted to ~10^6 CFU/mL with Mueller–Hinton (MH) broth for MRSA, Escherichia coli and Salmonella typhimurium while Trypticase Soy Broth for Enterococcus faecalis and Enterococcus faecium. Drugs were dissolved in an aqueous solution of N, N-dimethylformamide (DMF) at a concentration of 2560 µg/mL, and then diluted with broth to prepare working solution (1280 µg/mL). The drug susceptibility testing was performed in 96-well plate. A total of 20 µL of working solution was added into column 1 and well mixed as a 10-fold dilution, following which Serial 2-fold dilutions were prepared to provide concentration ranges of 128–0.0078 µg/mL. Blank broth (no cultures) and bacteria solution (drugs replaced by blank solvent) were set as drug-free controls. Each 96-well plate was cultured at 37 °C for 24 h. The MIC value is the lowest concentration of amphenmulin which inhibits the visible growth of bacteria. The experiment was repeated three times."}, "[3]": {"tested_on": "IL-6", "assay": "MRSA wound infection model: serum cytokine ELISA", "assay_type": "in vivo, mice", "conditions": "three days after treatment (method: 24 h), p < 0.05", "description": "(§1) Six weeks SPF-ICR female mice were used for this study. The Experimental model, inducted of inflammatory in mice by skin excision, was established referring to existing methods with some alterations. The mice were anesthetized with the intravenous injection of 1% sodium pentobarbital. After their hair on the back was shaved, the mice were anesthetized and the back skin was perforated with a biopsy perforator at a depth of fascia injury. The inoculum (50 μL), containing 10^9 CFU/mL of the indicated microorganism (MRSA ATCC 43300), was applied on the wound for three times at 30 min intervals. 100 μL drug (3 mg/mL) was administrated on the wound at 1 h after inoculation for three consecutive days. A total of 100 μL blank matrix was given to the infected control group and the non-infected group in the same way. The wound was wrapped with sterile gauze. During the treatment, all mice were kept individually and free to eat and drink.\n(§2) After administration for 24 h, blood samples were collected from the ocular venous plexus and were prepared to serum samples as previously described. The contents of IL-6, TNF-α, and MCP-1 in serum were detected using ELISA kits according to the instruction. All ELISA kits were purchased from Shanghai Enzyme-linked Biotechnology Co., Ltd. (Shanghai, China)."}, "[4]": {"tested_on": "MCP-1", "assay": "MRSA wound infection model: serum cytokine ELISA", "assay_type": "in vivo, mice", "conditions": "three days after treatment (method: 24 h), p < 0.05", "description": "as §1, §2"}, "[5]": {"tested_on": "TNF-α", "assay": "MRSA wound infection model: serum cytokine ELISA", "assay_type": "in vivo, mice", "conditions": "three days after treatment (method: 24 h), p < 0.05", "description": "as §1, §2"}, "[6]": {"conditions": "female, ICR, mouse, plasma, mice, 10 mg/kg, intravenous"}, "[7]": {"conditions": "female, ICR, mouse, plasma, mice, 10 mg/kg, oral"}}, "note": "Several values for one entry are separate records, joined by “and”; a condition that tells them apart may be missing. Identical values can stand only once.", "data": [{"smiles": "C=C[C@]1(C)C[C@@H](OC(=O)CSc2ccccc2N)[C@]2(C)[C@H](C)CC[C@]3(CCC(=O)[C@H]32)[C@@H](C)[C@@H]1O", "note": "[Amphenmulin, 22-(2-amino-phenylsulfanyl)-22-deoxypleuromutilin]", "values": [{"measurement": "concentration at 3 h", "setting": "[1]; female, ICR, mouse, plasma, po, 10 mg/kg, mice, oral 10 mg/kg, 3 h, n = 8, read-out: plasma concentration, mean ± S.D", "value": "220 ± 150", "unit": "ng/mL"}, {"measurement": "concentration at 4 h", "setting": "[1]; female, ICR, mouse, plasma, po, 10 mg/kg, mice, oral 10 mg/kg, 4 h, n = 8, read-out: plasma concentration, mean ± S.D", "value": "150 ± 80", "unit": "ng/mL"}, {"measurement": "concentration at 6 h", "setting": "[1]; female, ICR, mouse, plasma, po, 10 mg/kg, mice, oral 10 mg/kg, 6 h, n = 8, read-out: plasma concentration, mean ± S.D", "value": "80 ± 30", "unit": "ng/mL"}, {"measurement": "concentration at 8 h", "setting": "[1]; female, ICR, mouse, plasma, po, 10 mg/kg, mice, oral 10 mg/kg, 8 h, n = 8, read-out: plasma concentration, mean ± S.D", "value": "50 ± 20", "unit": "ng/mL"}, {"measurement": "concentration at 12 h", "setting": "[1]; female, ICR, mouse, plasma, po, 10 mg/kg, mice, oral 10 mg/kg, 12 h, n = 8, read-out: plasma concentration, mean ± S.D", "value": "20 ± 10", "unit": "ng/mL"}, {"measurement": "AUC(0-inf)", "setting": "[1]; [6]", "value": "12200 ± 1350", "unit": "ng·h/mL"}, {"measurement": "MRT", "setting": "[1]; [6]", "value": "2.57 ± 0.19", "unit": "h"}, {"measurement": "half-life", "setting": "[1]; [6]", "value": "1.92 ± 0.28", "unit": "h"}, {"measurement": "Vd", "setting": "[1]; female, ICR, mouse, plasma, mice, 10 mg/kg, intravenous, read-out: Vz", "value": "2.17 ± 0.42", "unit": "L/kg"}, {"measurement": "AUC(0-inf)", "setting": "[1]; [7]", "value": "1670 ± 660", "unit": "ng·h/mL"}, {"measurement": "Cmax", "setting": "[1]; [7]", "value": "530 ± 180", "unit": "ng/mL"}, {"measurement": "MRT", "setting": "[1]; [7]", "value": "4.01 ± 0.62", "unit": "h"}, {"measurement": "Tmax", "setting": "[1]; [7]", "value": "1.37 ± 0.74", "unit": "h"}, {"measurement": "bioavailability", "setting": "[1]; [7]", "value": 13.7, "unit": "%"}, {"measurement": "half-life", "setting": "[1]; [7]", "value": "2.91 ± 0.81", "unit": "h"}, {"measurement": "Vd/F", "setting": "[1]; female, ICR, mouse, plasma, mice, 10 mg/kg, oral, read-out: Vz/F", "value": "28.5 ± 9.01", "unit": "L/kg"}, {"measurement": "plasma concentration, individual mice", "setting": "[1]; intraperitoneal 10 mg/kg, 0.083 h", "value": "0.94 µg/mL and 0.70 µg/mL and 0.61 µg/mL and 0.48 µg/mL and 0.79 µg/mL and 1.48 µg/mL and 0.68 µg/mL and 1.14 µg/mL"}, {"measurement": "plasma concentration, individual mice", "setting": "[1]; intraperitoneal 10 mg/kg, 0.25 h", "value": "0.98 µg/mL and 1.39 µg/mL and 1.10 µg/mL and 0.89 µg/mL and 1.15 µg/mL and 2.26 µg/mL and 1.20 µg/mL and 0.78 µg/mL"}, {"measurement": "plasma concentration, individual mice", "setting": "[1]; intraperitoneal 10 mg/kg, 0.5 h", "value": "0.81 µg/mL and 1.39 µg/mL and 1.54 µg/mL and 0.58 µg/mL and 0.89 µg/mL and 1.48 µg/mL and 0.54 µg/mL and 0.61 µg/mL"}, {"measurement": "plasma concentration, individual mice", "setting": "[1]; intraperitoneal 10 mg/kg, 0.75 h", "value": "0.42 µg/mL and 0.40 µg/mL"}, {"measurement": "plasma concentration, individual mice", "setting": "[1]; intravenous 10 mg/kg, 0.083 h, 10 mg/kg", "value": "4.5 µg/mL and 3.97 µg/mL and 3.15 µg/mL and 4.2 µg/mL and 5.1 µg/mL and 3.25 µg/mL and 4.31 µg/mL"}, {"measurement": "plasma concentration, individual mice", "setting": "[1]; intravenous 10 mg/kg, 0.25 h, 10 mg/kg", "value": "3.07 µg/mL and 3.57 µg/mL and 3.78 µg/mL and 4.44 µg/mL and 3.64 µg/mL and 4.65 µg/mL and 4.18 µg/mL"}, {"measurement": "plasma concentration, individual mice", "setting": "[1]; intravenous 10 mg/kg, 0.5 h, 10 mg/kg", "value": "3.66 µg/mL and 3.82 µg/mL and 3.09 µg/mL and 3.18 µg/mL and 4.31 µg/mL and 3.98 µg/mL and 3.54 µg/mL"}, {"measurement": "plasma concentration, individual mice", "setting": "[1]; intravenous 10 mg/kg, 0.75 h, 10 mg/kg", "value": "3.46 µg/mL and 4.22 µg/mL and 3.49 µg/mL and 2.98 µg/mL and 4.21 µg/mL and 3.48 µg/mL and 2.31 µg/mL"}, {"measurement": "plasma concentration, individual mice", "setting": "[1]; intravenous 10 mg/kg, 1 h, 10 mg/kg", "value": "3.90 µg/mL and 3.62 µg/mL and 3.02 µg/mL and 2.02 µg/mL and 2.52 µg/mL and 2.95 µg/mL and 3.40 µg/mL and 4.09 µg/mL"}, {"measurement": "plasma concentration, individual mice", "setting": "[1]; intravenous 10 mg/kg, 2 h, 10 mg/kg", "value": "1.56 µg/mL and 1.41 µg/mL and 2.31 µg/mL and 2.00 µg/mL and 2.56 µg/mL and 2.83 µg/mL and 3.14 µg/mL and 2.61 µg/mL"}, {"measurement": "plasma concentration, individual mice", "setting": "[1]; intravenous 10 mg/kg, 4 h, 10 mg/kg", "value": "0.99 µg/mL and 1.32 µg/mL and 1.00 µg/mL and 1.10 µg/mL and 0.89 µg/mL and 0.79 µg/mL and 0.94 µg/mL"}, {"measurement": "plasma concentration, individual mice", "setting": "[1]; intravenous 10 mg/kg, 6 h, 10 mg/kg", "value": "0.31 µg/mL and 0.43 µg/mL and 0.54 µg/mL and 0.52 µg/mL and 0.29 µg/mL and 0.34 µg/mL and 0.44 µg/mL"}, {"measurement": "plasma concentration, individual mice", "setting": "[1]; intravenous 10 mg/kg, 8 h, 10 mg/kg", "value": "0.10 µg/mL and 0.16 µg/mL and 0.30 µg/mL and 0.24 µg/mL and 0.19 µg/mL and 0.12 µg/mL and 0.28 µg/mL and 0.32 µg/mL"}, {"measurement": "plasma concentration, individual mice", "setting": "[1]; intravenous 10 mg/kg, 12 h, 10 mg/kg", "value": "0.03 µg/mL (2×) and 0.05 µg/mL (3×) and 0.08 µg/mL and 0.04 µg/mL and 0.06 µg/mL"}, {"measurement": "CLβ/F", "setting": "[1]; mice, 10 mg/kg, intraperitoneal", "value": "68 ± 19", "unit": "mL/min/kg"}, {"measurement": "CLβ", "setting": "[1]; mice, 10 mg/kg, intravenous", "value": "13.7 ± 1.5", "unit": "mL/min/kg"}, {"measurement": "CLβ/F", "setting": "[1]; mice, 10 mg/kg, oral", "value": "105 ± 37.7", "unit": "mL/min/kg"}, {"measurement": "MIC", "setting": "[2]", "value": "0.0156 to 8", "unit": "µg/mL"}, {"measurement": "IL-6 in the serum vs infection group", "setting": "[3]", "value": "significantly decreased"}, {"measurement": "MCP-1 in the serum vs infection group", "setting": "[4]", "value": "significantly decreased"}, {"measurement": "TNF-α in the serum vs infection group", "setting": "[5]", "value": "significantly decreased"}]}]}
